In US10766903B2 (ALMAC DISCOVERY LIMITED, priority 2016, dated 2020):
Like-named read-outs stand apart in the source and are kept apart here.

Biological target: USP7 (Homo sapiens (Human), UniProt Q93009)
Experiment: USP7 fluorescence polarisation (FP) biochemical assay, ubiquitin-Lys-TAMRA substrate
Settings: average of at least duplicate experiments
In short: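 Full-length His6-USP7 (2.5 nM) incubated ± inhibitor (8-point dilutions, 200 to 0.1 μM before addition) in 50 mM HEPES pH 7.2, 150 mM NaCl, 0.5 mM EDTA, 5 mM DTT, 0.05% BSA, 0.05% CHAPS. Ubiquitin-Lys-TAMRA cleavage followed by FP (ex 530/em 575 nm) every 15 min for 1.5 h; normalised to no-compound control.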

[1] = Table 4, biochemical assay, read-out: USP7 IC50

Chain of USP7 (Q93009 whole entry): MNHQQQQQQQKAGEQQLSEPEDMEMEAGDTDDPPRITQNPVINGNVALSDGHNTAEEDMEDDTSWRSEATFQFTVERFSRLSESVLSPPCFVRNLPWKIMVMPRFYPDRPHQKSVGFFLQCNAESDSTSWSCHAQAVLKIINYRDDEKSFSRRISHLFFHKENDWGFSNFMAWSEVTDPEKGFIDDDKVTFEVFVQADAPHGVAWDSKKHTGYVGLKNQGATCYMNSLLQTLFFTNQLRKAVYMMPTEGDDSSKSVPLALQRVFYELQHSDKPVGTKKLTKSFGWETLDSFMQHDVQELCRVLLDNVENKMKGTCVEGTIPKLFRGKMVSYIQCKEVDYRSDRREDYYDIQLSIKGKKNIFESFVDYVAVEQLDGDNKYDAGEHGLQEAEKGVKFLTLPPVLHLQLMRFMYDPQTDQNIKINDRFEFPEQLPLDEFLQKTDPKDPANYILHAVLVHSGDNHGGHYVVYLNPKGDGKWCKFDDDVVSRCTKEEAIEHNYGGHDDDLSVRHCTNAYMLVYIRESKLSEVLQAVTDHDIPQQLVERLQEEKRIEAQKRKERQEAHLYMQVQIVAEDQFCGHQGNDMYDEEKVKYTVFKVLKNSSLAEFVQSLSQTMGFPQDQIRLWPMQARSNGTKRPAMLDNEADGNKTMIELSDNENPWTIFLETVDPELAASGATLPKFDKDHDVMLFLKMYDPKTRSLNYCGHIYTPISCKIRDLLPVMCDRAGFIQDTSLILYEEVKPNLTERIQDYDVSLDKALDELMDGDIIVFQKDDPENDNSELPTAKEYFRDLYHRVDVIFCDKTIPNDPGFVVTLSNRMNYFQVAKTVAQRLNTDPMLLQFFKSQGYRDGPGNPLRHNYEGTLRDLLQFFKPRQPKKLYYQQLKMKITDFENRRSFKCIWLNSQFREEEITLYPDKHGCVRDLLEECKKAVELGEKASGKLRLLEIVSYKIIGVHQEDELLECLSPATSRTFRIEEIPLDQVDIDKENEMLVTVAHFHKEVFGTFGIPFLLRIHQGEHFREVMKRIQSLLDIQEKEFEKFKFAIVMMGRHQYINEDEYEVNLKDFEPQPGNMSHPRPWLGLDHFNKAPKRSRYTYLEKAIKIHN

IC50 [1]	IC50 (USP7 IC50, Table 4, biochemical assay)	Compound
250 to 999 nM	–	O=C(CC(C1CC1)C1CC1)N1CCC(O)(Cn2cnc3c(nnn3-c3ccccc3)c2=O)CC1 [Example 187, 6-((1-(3,3-Dicyclopropylpropanoyl)-4-hydroxypiperidin-4-yl)methyl)-3-phenyl-3H-[1,2,3]triazolo[4,5-d]pyrimidin-7(6H)-one]
1000 to 200000 nM	–	Cc1nc2c(=O)n(CC3(O)CCN(C(=O)CC(C4CC4)C4CC4)CC3)cnc2n1-c1ccccc1 [Example 190, 1-((1-(3,3-Dicyclopropylpropanoyl)-4-hydroxypiperidin-4-yl)methyl)-8-methyl-9-phenyl-1H-purin-6(9H)-one]
1000 to 200000 nM	–	Cn1nc2c(=O)n(CC3(O)CCN(C(=O)c4cnco4)CC3)cnc2c1-c1ccccc1 [Example 192, 6-((4-Hydroxy-1-(oxazole-5-carbonyl)piperidin-4-yl)methyl)-2-methyl-3-phenyl-2H-pyrazolo[4,3-d]pyrimidin-7(6H)-one]
250 to 999 nM	–	Cn1nc2c(=O)n(CC3(O)CCN(C(=O)CC(C4CC4)C4CC4)CC3)cnc2c1-c1ccccc1 [Example 193, 6-((1-(3,3-Dicyclopropylpropanoyl)-4-hydroxypiperidin-4-yl)methyl)-2-methyl-3-phenyl-2H-pyrazolo[4,3-d]pyrimidin-7(6H)-one]
< 250 nM	–	CCOC(=O)NCc1ccc(-c2c3ncn(CC4(O)CCN(C(=O)C[C@@H](C)c5ccccc5)CC4)c(=O)c3nn2C)cc1 [Example 194, (R)-Ethyl 4-(6-((4-hydroxy-1-(3-phenylbutanoyl)piperidin-4-yl)methyl)-2-methyl-7-oxo-6,7-dihydro-2H-pyrazolo[4,3-d]pyrimidin-3-yl)benzylcarbamate]
< 250 nM	–	CC1(C(=O)N2CCC(O)(Cn3cnc4c(cc(Cl)n4-c4csc(CO)c4)c3=O)CC2)CC1 [Example 201, 6-Chloro-3-((4-hydroxy-1-(1-methylcyclopropanecarbonyl)piperidin-4-yl)methyl)-7-(5-(hydroxymethyl)thiophen-3-yl)-3H-pyrrolo[2,3-d]pyrimidin-4(7H)-one]
250 to 999 nM	–	Cn1nccc1-c1cccc(-n2c(Cl)cc3c(=O)n(CC4(O)CCN(C(=O)C5(C)CC5)CC4)cnc32)c1 [Example 208, 6-Chloro-3-((4-hydroxy-1-(1-methylcyclopropanecarbonyl)piperidin-4-yl)methyl)-7-(3-(1-methyl-1H-pyrazol-5-yl)phenyl)-3H-pyrrolo[2,3-d]pyrimidin-4(7H)-one]
250 to 999 nM	–	Cn1nccc1-c1cccc(-n2c(Cl)cc3c(=O)n(CC4(O)CCN(C(=O)c5cnc(C6CC6)o5)CC4)cnc32)c1 [Example 210, 6-Chloro-3-((1-(2-cyclopropyloxazole-5-carbonyl)-4-hydroxypiperidin-4-yl)methyl)-7-(3-(1-methyl-1H-pyrazol-5-yl)phenyl)-3H-pyrrolo[2,3-d]pyrimidin-4(7H)-one]
< 250 nM	–	Cn1cc(-c2cccc(-n3c(Cl)cc4c(=O)n(CC5(O)CCN(C(=O)c6cnc(C7CC7)o6)CC5)cnc43)c2)cn1 [Example 211, 6-Chloro-3-((1-(2-cyclopropyloxazole-5-carbonyl)-4-hydroxypiperidin-4-yl)methyl)-7-(3-(1-methyl-1H-pyrazol-4-yl)phenyl)-3H-pyrrolo[2,3-d]pyrimidin-4(7H)-one]
< 250 nM	–	O=C(c1cnc(C2CC2)o1)N1CCC(O)(Cn2cnc3c(cc(Cl)n3-c3cccc(Br)c3)c2=O)CC1 [Example 213, 7-(3-Bromophenyl)-6-chloro-3-((1-(2-cyclopropyloxazole-5-carbonyl)-4-hydroxypiperidin-4-yl)methyl)-3H-pyrrolo[2,3-d]pyrimidin-4(7H)-one]
< 250 nM	–	O=C(c1cnc(C2CC2)o1)N1CCC(O)(Cn2cnc3c(cc(Cl)n3-c3cccc(C4CC4)c3)c2=O)CC1 [Example 217, 6-Chloro-3-((1-(2-cyclopropyloxazole-5-carbonyl)-4-hydroxypiperidin-4-yl)methyl)-7-(3-cyclopropylphenyl)-3H-pyrrolo[2,3-d]pyrimidin-4(7H)-one]

The remaining lines, values behind:

Compound	IC50 [1]	IC50 (USP7 IC50, Table 4, biochemical assay)
C[C@H](CC(=O)N1CCC(O)(Cn2cnc3c(nnn3-c3ccccc3)c2=O)CC1)c1ccccc1 [Example 185, (R)-6-((4-Hydroxy-1-(3-phenylbutanoyl)piperidin-4-yl)methyl)-3-phenyl-3H-[1,2,3]triazolo[4,5-d]pyrimidin-7(6H)-one]	< 250 nM	–
O=C(CCC1CCC1)N1CCC(O)(Cn2cnc3c(nnn3-c3ccccc3)c2=O)CC1 [Example 186, 6-((1-(3-Cyclobutylpropanoyl)-4-hydroxypiperidin-4-yl)methyl)-3-phenyl-3H-[1,2,3]triazolo[4,5-d]pyrimidin-7(6H)-one]	1000 to 200000 nM	–
Cc1nc2c(=O)n(CC3(O)CCN(C(=O)C[C@@H](C)c4ccccc4)CC3)cnc2n1-c1ccccc1 [Example 188, (R)-1-((4-Hydroxy-1-(3-phenylbutanoyl)piperidin-4-yl)methyl)-8-methyl-9-phenyl-1H-purin-6(9H)-one]	< 250 nM	–
Cc1nc2c(=O)n(CC3(O)CCN(C(=O)C[C@H](c4ccccc4)C(F)(F)F)CC3)cnc2n1-c1ccccc1 [Example 189, (R)-1-((4-Hydroxy-1-(4,4,4-trifluoro-3-phenylbutanoyl)piperidin-4-yl)methyl)-8-methyl-9-phenyl-1H-purin-6(9H)-one]	–	250 to 999 nM
Cn1nc2c(=O)n(CC3(O)CCN(C(=O)C4(C)CC4)CC3)cnc2c1-c1ccccc1 [Example 191, 6-((4-Hydroxy-1-(1-methylcyclopropanecarbonyl)piperidin-4-yl)methyl)-2-methyl-3-phenyl-2H-pyrazolo[4,3-d]pyrimidin-7(6H)-one]	1000 to 200000 nM	–
Cc1nc2c(=O)n(CC3(O)CCN(C(=O)c4cnc(C5CC5)o4)CC3)cnc2n1-c1ccccc1 [Example 195, 1-((1-(2-Cyclopropyloxazole-5-carbonyl)-4-hydroxypiperidin-4-yl)methyl)-8-methyl-9-phenyl-1H-purin-6(9H)-one]	1000 to 200000 nM	–
Cn1nc2c(=O)n(CC3(O)CCN(C(=O)c4cnc(C5CC5)o4)CC3)cnc2c1-c1ccccc1 [Example 196, 6-((1-(2-Cyclopropyloxazole-5-carbonyl)-4-hydroxypiperidin-4-yl)methyl)-2-methyl-3-phenyl-2H-pyrazolo[4,3-d]pyrimidin-7(6H)-one]	1000 to 200000 nM	–
CC1(C(=O)N2CCC(O)(Cn3cnc4c(nnn4-c4ccccc4)c3=O)CC2)CC1 [Example 197, 6-((4-Hydroxy-1-(1-methylcyclopropanecarbonyl)piperidin-4-yl)methyl)-3-phenyl-3H-[1,2,3]triazolo[4,5-d]pyrimidin-7(6H)-one]	1000 to 200000 nM	–
O=C(c1cnc(C2CC2)o1)N1CCC(O)(Cn2cnc3c(nnn3-c3ccccc3)c2=O)CC1 [Example 198, 6-((1-(2-Cyclopropyloxazole-5-carbonyl)-4-hydroxypiperidin-4-yl)methyl)-3-phenyl-3H-[1,2,3]triazolo[4,5-d]pyrimidin-7(6H)-one]	1000 to 200000 nM	–
CC1(C(=O)N2CCC(O)(Cn3cnc4[nH]c(Cl)cc4c3=O)CC2)CC1 [Example 199, 6-Chloro-3-((4-hydroxy-1-(1-methylcyclopropanecarbonyl)piperidin-4-yl)methyl)-3H-pyrrolo[2,3d]pyrimidin-4(7H)-one]	1000 to 200000 nM	–
CC1(C(=O)N2CCC(O)(Cn3cnc4c(cc(Cl)n4-c4ccc(F)cc4)c3=O)CC2)CC1 [Example 204, 6-Chloro-7-(4-fluorophenyl)-3-((4-hydroxy-1-(1-methylcyclopropanecarbonyl)piperidin-4-yl)methyl)-3H-pyrrolo[2,3-d]pyrimidin-4(7H)-one]	< 250 nM	–
O=C(c1cnc(C2CC2)o1)N1CCC(O)(Cn2cnc3c(cc(Cl)n3-c3ccc(F)cc3)c2=O)CC1 [Example 205, 6-Chloro-3-((1-(2-cyclopropyloxazole-5-carbonyl)-4-hydroxypiperidin-4-yl)methyl)-7-(4-fluorophenyl)-3H-pyrrolo[2,3-d]pyrimidin-4(7H)-one]	< 250 nM	–
COc1cc(-n2c(Cl)cc3c(=O)n(CC4(O)CCN(C(=O)c5cnc(C6CC6)o5)CC4)cnc32)ccc1F [Example 206, 6-Chloro-3-((1-(2-cyclopropyloxazole-5-carbonyl)-4-hydroxypiperidin-4-yl)methyl)-7-(4-fluoro-3-methoxyphenyl)-3H-pyrrolo[2,3-d]pyrimidin-4(7H)-one]	< 250 nM	–
COc1cc(-n2c(Cl)cc3c(=O)n(CC4(O)CCN(C(=O)C5(C)CC5)CC4)cnc32)ccc1F [Example 207, 6-Chloro-7-(4-fluoro-3-methoxyphenyl)-3-((4-hydroxy-1-(1-methylcyclopropanecarbonyl)piperidin-4-yl)methyl)-3H-pyrrolo[2,3-d]pyrimidin-4(7H)-one]	250 to 999 nM	–
Cn1c(Cl)cc2c(=O)n(CC3(O)CCN(C(=O)C4(C)CC4)CC3)cnc21 [Example 209, 6-Chloro-3-((4-hydroxy-1-(1-methylcyclopropanecarbonyl)piperidin-4-yl)methyl)-7-methyl-3H-pyrrolo[2,3-d]pyrimidin-4(7H)-one]	1000 to 200000 nM	–
CC1(C(=O)N2CCC(O)(Cn3cnc4c(cc(Cl)n4-c4cccc(Br)c4)c3=O)CC2)CC1 [Example 214, 7-(3-Bromophenyl)-6-chloro-3-((4-hydroxy-1-(1-methylcyclopropanecarbonyl)piperidin-4-yl)methyl)-3H-pyrrolo[2,3-d]pyrimidin-4(7H)-one]	250 to 999 nM	–
O=C(c1cnc(C2CC2)o1)N1CCC(O)(Cn2cnc3c(cc(Cl)n3-c3ccccc3)c2=O)CC1 [Example 215, 6-Chloro-3-((1-(2-cyclopropyloxazole-5-carbonyl)-4-hydroxypiperidin-4-yl)methyl)-7-phenyl-3H-pyrrolo[2,3-d]pyrimidin-4(7H)-one]	< 250 nM	–
Cn1cc(C(=O)N2CCC(O)(Cn3cnc4c(cc(Cl)n4-c4ccccc4)c3=O)CC2)cn1 [Example 216, 6-Chloro-3-((4-hydroxy-1-(1-methyl-1H-pyrazole-4-carbonyl)piperidin-4-yl)methyl)-7-phenyl-3H-pyrrolo[2,3-d]pyrimidin-4(7H)-one]	250 to 999 nM	–
